# Patent US8841330B2, “Omega-carboxyaryl substituted diphenyl ureas as raf kinase inhibitors” (Bayer Healthcare LLC, priority 2000, dated 2014)
row,melting point,Structure (SMILES)
1,228 to 230 °C,"COC(=O)c1ccc(Oc2ccc(NC(=O)Nc3ccc(Cl)c(C(F)(F)F)c3)cc2)cn1 [Entry 55, N-(4-chloro-3-(trifluoromethyl)phenyl)-N′-(4-(2-(methoxycarbonyl)-5-pyridyloxy)phenyl)urea]"
2,125 to 130 °C,"CNC(=O)c1cc(Oc2ccc(NC(=O)Nc3ccc(Oc4ccnc(C(=O)NC)c4)cc3)cc2)ccn1 [Entry 103, bis(4-(2-(N-methylcarbamoyl)-4-pyridyloxy)phenyl)urea]"
